In patent US9850206B2, “S1P and/or ATX modulating agents” (BIOGEN MA INC., priority 2012, dated 2017):
Read-outs that look alike come from different tables or passages of the source.

What was measured:
S1P1 = S1P1 (Homo sapiens, UniProt P21453); assay: S1P receptor activity assay (calcium flux, FLIPR TETRA), S1P1; assay type: cell-based
Description: (§1) Agonist percentage activation determinations were obtained by assaying sample compounds and referencing the Emax control for each receptor profiled. Antagonist percentage inhibition determinations were obtained by assaying sample compounds and referencing the control EC80 wells for each receptor profiled. The samples were run using a “Single Addition” assay protocol for the agonist and antagonist assay run. The protocol design was as follows:
(§2) Master stock solution: Unless specified otherwise, all sample compounds were diluted in 100% anhydrous DMSO including all serial dilutions. All control wells contained identical solvent final concentrations as did the sample compound wells.
(§3) Compound plate for assay: The sample compounds were transferred from a master stock solution into a daughter plate that was used in the assay. Each sample compound was diluted into assay buffer (1×HBSS with 20 mM HEPES and 2.5 mM Probenecid) at an appropriate concentration to obtain final concentrations.
(§4) Sample compounds were plated in an eight-point, four-fold dilution series in duplicate with a top concentration of 10 μM. The concentrations described here reflect the final concentration of the compounds during the antagonist assay.
(§5) Reference agonists were handled as mentioned above serving as assay control. The reference agonists were handled as described above for Emax.
(§6) Assay was read for 180 seconds using the […] (This assay run added sample compounds and reference agonist to respective wells). At the completion of the first “Single Addition” assay run, assay plate was removed from the […] and placed at 25° C. for seven (7) minutes.
(§7) Using the EC80 values determined during the agonist assay, stimulated all pre-incubated sample compound and reference antagonist (if applicable) wells with EC80 of reference agonist. Read for 180 seconds using the […] (This assay added reference agonist to respective wells—then fluorescence measurements were collected to calculate percentage inhibition values).
(§8) All plates were subjected to appropriate baseline corrections. Once baseline corrections were processed, maximum fluorescence values were exported and data manipulated to calculate percentage activation, percentage inhibition and Z′.

S1P4 = molecular target: T1, S1P4 (Homo sapiens, UniProt O95977); assay: S1P receptor activity assay (calcium flux, FLIPR TETRA), S1P4; assay type: cell-based
T1 sequence (O95977 1-384): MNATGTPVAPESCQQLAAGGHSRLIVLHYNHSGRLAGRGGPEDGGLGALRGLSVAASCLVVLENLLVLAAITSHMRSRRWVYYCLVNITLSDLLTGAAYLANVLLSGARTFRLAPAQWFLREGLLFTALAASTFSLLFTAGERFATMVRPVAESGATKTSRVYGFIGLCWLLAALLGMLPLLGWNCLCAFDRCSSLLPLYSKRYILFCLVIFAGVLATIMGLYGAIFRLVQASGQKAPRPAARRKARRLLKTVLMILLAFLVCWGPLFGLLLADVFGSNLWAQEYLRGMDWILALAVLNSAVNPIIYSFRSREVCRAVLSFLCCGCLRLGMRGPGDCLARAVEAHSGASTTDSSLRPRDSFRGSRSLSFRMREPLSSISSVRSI
Description: as §1, §2, §3, §4, §5, §6, §7, §8

Human ATX protein = molecular target: T2, Human ATX protein (Homo sapiens, UniProt Q13822); assay: Autotaxin (ATX) FRET assay with FS-3 substrate; assay type: biochemical
T2 construct: made in house
Description: ATX (Autotaxin) is a 125 KDa glycoprotein with lysophospholipase D (LPLD) activity that generates the bioactive lipid lysophosphatidic acid (LPA) from lysophosphatidylcholine (LPC). The ATX biochemical assay utilizes a FRET (fluorescence resonance energy transfer) technology platform. […] ATX catalyzes the hydrolysis of the substrate which separates the dabsyl quencher from the fluorescein reporter, which becomes fluorescent. The reaction is monitored by a SpectraMax M5 (Molecular Devices, Sunnyvale, Calif.) with at excitation wavelength 485 nm and emission wavelength 535 nm.
Fatty acid free-BSA (Sigma A8806): 10 mg/mL in H2O, stored at 4° C.
2×ATX assay buffer: 100 mM Tris, 280 mM NaCl, 10 mM KCl, 2 mM CaCl2, 2 mM MgCl2, pH 7.4.
Human ATX protein: expressed and purified in house. Stored at −80° C.
Substrate FS-3 (Echelon, L-2000): 100 μg in 77.74 μL H2O (1 mM stock), stored at −20° C.
Compound dilution—All compounds were provided at 10 mM in 100% DMSO. In the first well, 2 μL of 10 mM compound was added to 78 μL of DMSO (1:40 dilution). In subsequent wells 3-fold dilution (total 10 dilutions) were performed.
1×ATX assay buffer was made up with a final concentration of 1 mg/mL fatty acid free-BSA using 2×ATX assay buffer, 10 mg/ml fatty acid free-BSA and ddH2O.
38 μL was added per well to the assay plate. The final concentration of ATX in the reaction as 1.0 μg/mL.
2 μL per well of compounds was transferred to provide the desired concentration. The plate was centrifuged, then incubated at room temperature for 30 minutes on the shaker.
FS-3 was diluted with 1×ATX assay buffer to a concentration of FS-3 of 10 μM (5×). Then, 10 μL was added per well to the assay plate. The final concentration of FS-3 in the reaction was 2 μM. The plate was centrifuged. The plate was kept shaking at room temperature for 2 hours. Because FS-3 substrate is light sensitive, plates were kept covered and protected from light.

S1P5 = S1P5 (Homo sapiens, UniProt Q9H228); assay: S1P receptor activity assay (calcium flux, FLIPR TETRA), S1P5; assay type: cell-based
Sequence of S1P5 (Q9H228 whole entry): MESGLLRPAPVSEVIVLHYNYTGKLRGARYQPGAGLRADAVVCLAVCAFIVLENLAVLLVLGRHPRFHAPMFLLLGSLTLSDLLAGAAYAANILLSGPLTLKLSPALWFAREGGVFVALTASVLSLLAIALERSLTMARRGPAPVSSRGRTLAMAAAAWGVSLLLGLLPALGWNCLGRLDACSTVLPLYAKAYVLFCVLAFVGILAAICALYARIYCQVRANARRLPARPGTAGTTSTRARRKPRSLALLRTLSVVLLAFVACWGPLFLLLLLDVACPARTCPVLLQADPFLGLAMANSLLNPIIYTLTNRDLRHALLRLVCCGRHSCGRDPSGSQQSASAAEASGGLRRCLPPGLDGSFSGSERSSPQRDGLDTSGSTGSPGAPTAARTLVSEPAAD
Description: as §1, §2, §3, §4, §5, §6, §7, §8

[1] = calcium flux, top concentration 10 μM, the >5 μM sentence says only 'for S1P1', read-out: IC50 for S1P1 agonist activity
[2] = calcium flux, top concentration 10 μM, the >5 μM sentence says only 'for S1P4', read-out: IC50 for S1P4 agonist activity
[3] = FS-3 2 μM, ATX 1.0 μg/mL, 2 hours at room temperature, read-out: IC50 (ATX)
[4] = calcium flux, top concentration 10 μM, read-out: IC50 for S1P5

Sequence of S1P1 (P21453 whole entry): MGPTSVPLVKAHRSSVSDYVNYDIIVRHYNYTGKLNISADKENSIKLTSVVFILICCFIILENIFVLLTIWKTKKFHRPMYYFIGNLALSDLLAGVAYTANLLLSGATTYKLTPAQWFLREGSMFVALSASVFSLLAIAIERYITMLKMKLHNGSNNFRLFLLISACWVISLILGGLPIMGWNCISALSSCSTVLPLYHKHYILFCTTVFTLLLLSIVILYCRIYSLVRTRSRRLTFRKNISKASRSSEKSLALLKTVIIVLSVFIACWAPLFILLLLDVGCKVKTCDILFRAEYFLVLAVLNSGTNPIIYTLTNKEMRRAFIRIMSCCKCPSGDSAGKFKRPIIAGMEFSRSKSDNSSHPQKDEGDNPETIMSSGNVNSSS

| SMILES | IC50 (S1P1; [1]) [µM] | IC50 (S1P4; [2]) [µM] | IC50 (Human ATX protein; [3]) [µM] | IC50 (S1P5; [4]) [µM] | IC50 (S1P1) [µM] | IC50 (S1P5) [µM] | IC50 (S1P4) [µM] | IC50 (Human ATX protein) [µM] |
| --- | --- | --- | --- | --- | --- | --- | --- | --- |
| CC(C)(C)[C@H]1CC[C@H](Oc2ccc(NC3CCCN(CCC(=O)O)C3)nc2)CC1 (relative stereo) [Example 12, 3-(3-(5-(trans-4-tert-butylcyclohexyloxy)pyridin-2-ylamino)piperidin-1-yl)propanoic acid] | > 5 | ≤ 2 | > 10 | – | – | – | – | – |
| CC(C)(C)[C@H]1CC[C@H](Oc2ccc(NC3CCCN(CCC(=O)O)C3)cc2)CC1 (relative stereo) [Example 13, 3-(3-((4-((trans-4-(tert-Butyl)cyclohexyl)oxy)phenyl)amino)piperidin-1-yl)propanoic acid] | > 5 | 2 to 5 | > 10 | – | – | – | – | – |
| CC(C)(C)[C@H]1CC[C@@H](Oc2ccc(C3CCCN(CCCC(=O)O)C3)cc2)CC1 (stereo in doubt) [Example 4, 4-(3-(4-(cis-4-tert-Butylcyclohexyloxy)phenyl)piperidin-1-yl)butanoic acid] | > 5 | > 5 | 5 to 10 | > 5 | – | – | – | – |
| CC(C)(C)[C@H]1CC[C@H](Oc2ccc(C3CCCN(CCC(=O)O)C3)cc2)CC1 (stereo partly drawn) [Example 3, 3-(3-(4-(trans-4-tert-Butylcyclohexyloxy)phenyl)piperidin-1-yl)propanoic acid] | – | – | 5 to 10 | – | – | – | – | – |
| CC(C)(C)[C@H]1CC[C@H](Oc2cccc(C3CCCN(CCC(=O)O)C3)c2)CC1 (stereo partly drawn) [Example 7, 3-(3-(3-((trans-4-(tert-Butyl)cyclohexyl)oxy)phenyl)piperidin-1-yl)propanoic acid] | – | ≤ 2 | 5 to 10 | > 5 | – | – | – | – |
| CC(C)(C)[C@H]1CC[C@H](Oc2cccc(C3CCCN(CCCC(=O)O)C3)c2)CC1 (stereo partly drawn) [Example 8, 4-(3-(3-((trans-4-(tert-Butyl)cyclohexyl)oxy)phenyl)piperidin-1-yl)butanoic acid] | – | ≤ 2 | 5 to 10 | > 5 | – | – | – | – |
| CC(C)(C)[C@H]1CC[C@H](Oc2ccc(C3CCCC(N4CCC(C(=O)O)CC4)C3)cc2)CC1 (stereo partly drawn) [Example 10, 1-(3-(4-(trans-4-tert-butylcyclohexyloxy)phenyl)cyclohexyl)piperidine-4-carboxylic acid] | > 5 | > 5 | > 10 | > 5 | – | – | – | – |
| CCCCCCCCOc1ccc(N2CCN(CCCC(=O)O)CC2)cc1 [Example 15, 4-(4-(4-(Octyloxy)phenyl)piperazin-1-yl)butanoic acid] | – | – | – | – | > 5 | > 5 | ≤ 2 | > 10 |
| CC(C)(C)[C@H]1CC[C@H](Oc2ccc(N3CCN(CCC(=O)O)CC3)cc2)CC1 [Example 17, 3-(4-(4-((trans-4-(tert-Butyl)cyclohexyl)oxy)phenyl)piperazin-1-yl)propanoic acid] | > 5 | 2 to 5 | > 10 | > 5 | – | – | – | – |
| CC(C)(C)[C@H]1CC[C@H](Oc2ccc(N3CCN(CCCC(=O)O)CC3)cc2)CC1 [Example 18, 4-(4-(4-((trans-4-(tert-Butyl)cyclohexyl)oxy)phenyl)piperazin-1-yl)butanoic acid] | > 5 | 2 to 5 | > 10 | > 5 | – | – | – | – |
| CC(C)(C)[C@H]1CC[C@H](Oc2ccc(C3CCN(CCC(=O)O)C3)cc2)CC1 (stereo partly drawn) [Example 23, 3-(3-(4-((trans-4-(tert-Butyl)cyclohexyl)oxy)phenyl)pyrrolidin-1-yl)propanoic acid] | > 5 | ≤ 2 | – | > 5 | – | – | – | – |
| CC(C)(C)[C@H]1CC[C@H](Oc2ccc(C3CCN(CCCC(=O)O)C3)cc2)CC1 (stereo partly drawn) [Example 24, 4-(3-(4-((trans-4-(tert-Butyl)cyclohexyl)oxy)phenyl)pyrrolidin-1-yl)butanoic acid] | > 5 | ≤ 2 | – | > 5 | – | – | – | – |
| CC(C)(C)[C@H]1CC[C@H](Oc2ccc(C3CCCN(C4CCC(C(=O)O)CC4)C3)cc2)CC1 (stereo partly drawn) [Example 25, 4-(3-(4-((trans-4-(tert-Butyl)cyclohexyl)oxy)phenyl)piperidin-1-yl)cyclohexanecarboxylic acid] | > 5 | ≤ 2 | – | – | – | – | – | – |
| CC(C)(C)[C@H]1CC[C@H](Oc2ccc(C3=CCN(CCCCC(=O)O)CC3)cc2)CC1 [Example 49, 5-(4-(4-((trans-4-(tert-Butyl)cyclohexyl)oxy)phenyl)-5,6-dihydropyridin-1(2H)-yl)pentanoic acid] | – | – | – | > 5 | > 5 | – | ≤ 2 | – |
| CC(C)(C)[C@H]1CC[C@H](Oc2ccc(C3CCN(CCCCC(=O)O)CC3)cc2)CC1 [Example 50, 5-(4-(4-((trans-4-(tert-Butyl)cyclohexyl)oxy)phenyl)piperidin-1-yl)pentanoic acid] | > 5 | ≤ 5 | – | > 5 | – | – | – | – |

The next lines start with results.

| IC50 (S1P1; [1]) [µM] | IC50 (S1P4; [2]) [µM] | IC50 (Human ATX protein; [3]) [µM] | IC50 (S1P5; [4]) [µM] | SMILES | IC50 (S1P1) [µM] | IC50 (S1P5) [µM] | IC50 (S1P4) [µM] | IC50 (Human ATX protein) [µM] |
| --- | --- | --- | --- | --- | --- | --- | --- | --- |
| > 5 | > 5 | – | > 5 | CCCCCCCCOc1ccc(C2CCCN(CCC(=O)O)C2)cc1 (centres unmarked) [Example 1, 3-(3-(4-(Octyloxy)phenyl)piperidin-1-yl)propanoic acid] | – | – | – | – |
| > 5 | ≤ 2 | – | > 5 | CCCCCCCCOc1ccc(C2CCCN(CCCC(=O)O)C2)cc1 (centres unmarked) [Example 2, 4-(3-(4-(Octyloxy)phenyl)piperidin-1-yl)butanoic acid] | – | – | – | – |
| > 5 | ≤ 2 | 5 to 10 | > 5 | CCCCCCCCOc1cccc(C2CCCN(CCC(=O)O)C2)c1 (centres unmarked) [Example 5, 3-(3-(3-(Octyloxy)phenyl)piperidin-1-yl)propanoic acid] | – | – | – | – |
| > 5 | ≤ 2 | 5 to 10 | > 5 | CCCCCCCCOc1cccc(C2CCCN(CCCC(=O)O)C2)c1 (centres unmarked) [Example 6, 4-(3-(3-(Octyloxy)phenyl)piperidin-1-yl)butanoic acid] | – | – | – | – |
| > 5 | > 5 | > 10 | > 5 | CCCCCCCCOc1ccc(C2CCCC(N3CCC(C(=O)O)CC3)C2)cc1 (centres unmarked) [Example 9, 1-(3-(4-(octyloxy)phenyl)cyclohexyl)piperidine-4-carboxylic acid] | – | – | – | – |
| > 5 | > 5 | 5 to 10 | – | CCCCCCCCOc1ccc(NC2CCCN(CCC(=O)O)C2)nc1 (centres unmarked) [Example 11, 3-(3-(5-(Octyloxy)pyridin-2-ylamino)piperidin-1-yl)propanoic acid] | – | – | – | – |
| > 5 | > 5 | – | > 5 | CCCCCCCCOc1ccc(N2CCN(CCC(=O)O)CC2)nc1 [Example 22, 3-(4-(5-(Octyloxy)pyridin-2-yl)piperazin-1-yl)propanoic acid] | – | – | – | – |
